Test results published in patent publication US12459899B2, “Isoquinolinone derivatives, method for preparing the same, and pharmaceutical composition for preventing or treating poly(ADP-ribose) polymerase-1-related diseases, comprising the same as active ingredient” (DIGMBIO. INC., priority 2019, dated 2025).

Molecular target: PARP-1 (poly[ADP-ribose] polymerase 1) enzyme (Homo sapiens (Human), UniProt P09874)
Test: PARP-1 (poly[ADP-ribose] polymerase 1) enzyme inhibitory ability, Trevigen assay kit
Format: biochemical
Conditions: 1 nM compound; read-out: PAR P-1 Inhibitory ability at 1 nM
Method in brief: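 Human PARP-1 activity was measured with a Trevigen assay kit in histone-coated 96-well plates rehydrated with 50 μL of 1×PARP buffer for 30 minutes. Enzyme (0.5 unit/well) and compound were preincubated 10 minutes at room temperature, then 25 μL of 1×PARP cocktail with biotinylated NAD and activated DNA was added for 1 hour.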

Sequence of PARP-1 (poly[ADP-ribose] polymerase 1) enzyme (P09874 whole entry): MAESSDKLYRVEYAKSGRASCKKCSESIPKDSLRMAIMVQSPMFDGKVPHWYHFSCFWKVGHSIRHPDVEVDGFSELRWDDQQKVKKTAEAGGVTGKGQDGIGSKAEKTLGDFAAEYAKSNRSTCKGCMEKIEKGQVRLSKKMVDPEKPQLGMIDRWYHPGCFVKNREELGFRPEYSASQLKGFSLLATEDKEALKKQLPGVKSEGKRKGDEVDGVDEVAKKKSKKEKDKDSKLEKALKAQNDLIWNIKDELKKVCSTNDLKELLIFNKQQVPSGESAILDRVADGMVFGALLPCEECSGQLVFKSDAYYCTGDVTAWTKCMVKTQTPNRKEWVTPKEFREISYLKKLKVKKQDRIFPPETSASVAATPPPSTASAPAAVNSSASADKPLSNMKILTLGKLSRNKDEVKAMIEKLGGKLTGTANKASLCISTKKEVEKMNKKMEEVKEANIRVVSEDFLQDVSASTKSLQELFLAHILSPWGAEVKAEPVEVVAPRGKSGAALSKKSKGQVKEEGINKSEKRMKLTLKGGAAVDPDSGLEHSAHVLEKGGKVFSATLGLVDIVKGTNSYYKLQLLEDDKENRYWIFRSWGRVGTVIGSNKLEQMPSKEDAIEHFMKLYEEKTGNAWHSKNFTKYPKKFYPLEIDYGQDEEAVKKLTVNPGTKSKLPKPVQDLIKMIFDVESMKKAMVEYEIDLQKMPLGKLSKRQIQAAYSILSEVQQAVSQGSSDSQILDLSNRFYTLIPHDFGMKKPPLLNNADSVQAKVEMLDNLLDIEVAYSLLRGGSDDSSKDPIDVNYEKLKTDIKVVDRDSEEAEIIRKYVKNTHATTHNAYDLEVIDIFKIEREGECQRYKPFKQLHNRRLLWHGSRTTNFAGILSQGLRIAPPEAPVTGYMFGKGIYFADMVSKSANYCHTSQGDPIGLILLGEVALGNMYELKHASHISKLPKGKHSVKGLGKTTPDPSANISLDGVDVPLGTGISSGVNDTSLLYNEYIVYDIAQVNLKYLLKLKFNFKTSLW

Row | SMILES | inhibition at 0.001 µM [%]
1 | Cc1cc(F)cc2c(=O)[nH]c(CCCN3CCN(c4ccc(C#N)cc4F)CC3)cc12 [Example 37, 3-fluoro-4-(4-(3-(7-fluoro-5-methyl-1-oxo-1,2-dihydroisoquinolin-3-yl)propyl)piperazin-1-yl)benzonitrile] | < 50
2 | Cc1cc(F)cc2c(=O)[nH]c(CCC(=O)N3C4CCC3CN(c3ccc(F)nc3)C4)cc12 [Example 217, 7-fluoro-3-(3-(3-(6-fluoropyridin-3-yl)-3,8-diazabicyclo[3.2.1]octan-8-yl)-3-oxopropyl)-5-methylisoquinolin-1(2H)-one] | < 50
3 | Cc1ccc(F)c2c(=O)[nH]c(CCCN3C4CCC3CN(c3ccc(F)nc3)C4)cc12 [Example 202, 8-fluoro-3-(3-(3-(6-fluoropyridin-3-yl)-3,8-diazabicyclo[3.2.1]octan-8-yl)propyl)-5-methylisoquinolin-1(2H)-one] | < 50
4 | Cc1cc(F)cc2c(=O)[nH]c(CCCN3CC=C(c4ccc(C#N)cc4)CC3)cc12 [Example 58, 4-(1-(3-(7-fluoro-5-methyl-1-oxo-1,2-dihydroisoquinolin-3-yl)propyl)-1,2,3,6-tetrahydropyridin-4-yl)benzonitrile] | 50 to 80
5 | Cc1ccc(F)c2c(=O)[nH]c(CCC(=O)N3CC=C(c4ccc(F)cn4)CC3)cc12 [Example 130, 8-fluoro-3-(3-(5-fluoro-3′,6′-dihydro-[2,4′-bipyridine]-1′(2′H)-yl)-3-oxopropyl)-5-methylisoquinolin-1(2H)-one] | < 50
6 | Cc1ccc(F)c2c(=O)[nH]c(CCC(=O)N3CCN(c4ccc(C#N)cc4)CC3)cc12 [Example 122, 4-(4-(3-(8-fluoro-5-methyl-1-oxo-1,2-dihydroisoquinolin-3-yl)propanoyl)piperazin-1-yl)benzonitrile] | < 50
7 | Cc1ccc(F)c2c(=O)[nH]c(CCC(=O)N3CC=C(c4ccc(F)c(C#N)c4)CC3)cc12 [Example 139, 2-fluoro-5-(1-(3-(8-fluoro-5-methyl-1-oxo-1,2-dihydroisoquinolin-3-yl)propanoyl)-1,2,3,6-tetrahydropyridin-4-yl)benzonitrile] | < 50
8 | O=c1[nH]c(CCCN2CCN(c3ccnc(F)c3)CC2)cc2ncccc12 [Example 227, 7-(3-(4-(2-fluoropyridin-4-yl)piperazin-1-yl)propyl)-1,6-naphthyridin-5(6H)-one] | < 50
9 | Cc1cc(F)cc2c(=O)[nH]c(CCCN3CCN(c4ccc(C#N)c(F)c4)CC3)cc12 [Example 38, 2-fluoro-4-(4-(3-(7-fluoro-5-methyl-1-oxo-1,2-dihydroisoquinolin-3-yl)propyl)piperazin-1-yl)benzonitrile] | < 50
10 | N#Cc1ccc(C2=CCN(CCCc3cc4ncccc4c(=O)[nH]3)CC2)cn1 [Example 234, 1′-(3-(5-oxo-5,6-dihydro-1,6-naphthyridin-7-yl)propyl)-1′,2′,3′,6′-tetrahydro-[3,4′-bipyridine]-6-carbonitrile] | < 50
11 | O=C(CCc1cc2ccc(F)cc2c(=O)[nH]1)N1CCN(C(=O)C2CC2)CC1 [Example 184, 3-(3-(4-(cyclopropanecarbonyl)piperazin-1-yl)-3-oxopropyl)-7-fluoroisoquinolin-1(2H)-one] | < 50
12 | O=c1[nH]c(CCCN2CC=C(c3ccc(C(F)(F)F)cc3)CC2)cc2cccc(F)c12 [Example 45, 8-fluoro-3-(3-(4-(4-(trifluoromethyl)phenyl)-3,6-dihydropyridin-1(2H)-yl)propyl)isoquinolin-1(2H)-one] | 50 to 80
13 | O=C(CCc1cc2ccc(F)cc2c(=O)[nH]1)N1CCN(C(=O)C2CCC2)CC1 [Example 180, 3-(3-(4-(cyclobutanecarbonyl)piperazin-1-yl)-3-oxopropyl)-7-fluoroisoquinolin-1(2H)-one] | < 50
14 | N#Cc1cc(C2=CCN(C(=O)CCc3cc4cccc(F)c4c(=O)[nH]3)CC2)ccc1F [Example 87, 2-fluoro-5-(1-(3-(8-fluoro-1-oxo-1,2-dihydroisoquinolin-3-yl)propanoyl)-1,2,3,6-tetrahydropyridin-4-yl)benzonitrile] | < 50
15 | O=C(CCc1cc2cccc(F)c2c(=O)[nH]1)N1CCN(C(=O)C2CC2)CC1 [Example 182, 3-(3-(4-(cyclopropanecarbonyl)piperazin-1-yl)-3-oxopropyl)-8-fluoroisoquinolin-1(2H)-one] | < 50
16 | N#Cc1ccc(N2CCN(CCCc3cc4cccc(F)c4c(=O)[nH]3)CC2)cn1 [Example 2, 5-(4-(3-(8-fluoro-1-oxo-1,2-dihydroisoquinolin-3-yl)propyl)piperazin-1-yl)picolinonitrile] | < 50
17 | Cc1ccc(F)c2c(=O)[nH]c(CCC(=O)N3C4CCC3CN(c3ccc(C#N)cc3)C4)cc12 [Example 148, 4-(8-(3-(8-fluoro-5-methyl-1-oxo-1,2-dihydroisoquinolin-3-yl)propanoyl)-3,8-diazabicyclo[3.2.1]octan-3-yl)benzonitrile] | < 50
18 | Cc1cc(F)cc2c(=O)[nH]c(CCC(=O)N3CCN(C(=O)C4CCCCC4)CC3)cc12 [Example 173, 3-(3-(4-(cyclohexanecarbonyl)piperazin-1-yl)-3-oxopropyl)-7-fluoro-5-methylisoquinolin-1(2H)-one] | < 50

Row | SMILES | inhibition at 0.001 µM [%]
19 | Cc1cc(F)cc2c(=O)[nH]c(CCC(=O)N3CCN(c4ccc(C#N)cn4)CC3)cc12 [Example 152, 6-(4-(3-(7-fluoro-5-methyl-1-oxo-1,2-dihydroisoquinolin-3-yl)propanoyl)piperazin-1-yl)nicotinonitrile] | < 50
20 | Cc1ccc(F)c2c(=O)[nH]c(CCCN3CCN(c4ccccn4)CC3)cc12 [Example 24, 8-fluoro-5-methyl-3-(3-(4-(pyridin-2-yl)piperazin-1-yl)propyl)isoquinolin-1(2H)-one] | < 50
21 | Cc1ccc(F)c2c(=O)[nH]c(CCCN3CCN(c4ccccc4C#N)CC3)cc12 [Example 28, 2-(4-(3-(8-fluoro-5-methyl-1-oxo-1,2-dihydroisoquinolin-3-yl)propyl)piperazin-1-yl)benzonitrile] | < 50
22 | Cc1ccc(F)c2c(=O)[nH]c(CCCN3CCN(C(=O)c4ccc(F)cc4)CC3)cc12 [Example 67, 8-fluoro-3-(3-(4-(4-fluorobenzoyl)piperazin-1-yl)propyl)-5-methylisoquinolin-1(2H)-one] | < 50
23 | Cc1ccc(F)c2c(=O)[nH]c(CCCN3CC[C@H](c4ccc(F)cc4)C3)cc12 [Example 31, (R)-8-fluoro-3-(3-(3-(4-fluorophenyl)pyrrolidin-1-yl)propyl)-5-methylisoquinolin-1(2H)-one] | < 50
24 | N#Cc1ccc(C2=CCN(CCCc3cc4cccc(F)c4c(=O)[nH]3)CC2)cc1 [Example 41, 4-(1-(3-(8-fluoro-1-oxo-1,2-dihydroisoquinolin-3-yl)propyl)-1,2,3,6-tetrahydropyridin-4-yl)benzonitrile] | 50 to 80
25 | O=c1[nH]c(CCCN2CCN(c3ccc(F)cc3)CC2)cc2ncccc12 [Example 223, 7-(3-(4-(4-fluorophenyl)piperazin-1-yl)propyl)-1,6-naphthyridin-5(6H)-one] | < 50
26 | N#Cc1ccc(NC2CCN(CCCc3cc4cccc(F)c4c(=O)[nH]3)CC2)cc1 [Example 247, 4-((1-(3-(8-fluoro-1-oxo-1,2-dihydroisoquinolin-3-yl)propyl)piperidin-4-yl)amino)benzonitrile] | 50 to 80
27 | N#Cc1ccc(C2=CCN(CCCc3cc4ncccc4c(=O)[nH]3)CC2)nc1 [Example 235, 1′-(3-(5-oxo-5,6-dihydro-1,6-naphthyridin-7-yl)propyl)-1′,2′,3′,6′-tetrahydro-[2,4′-bipyridine]-5-carbonitrile] | < 50
28 | N#Cc1ccc(N2CCN(CCCc3cc4cccc(F)c4c(=O)[nH]3)CC2)nc1 [Example 3, 6-(4-(3-(8-fluoro-1-oxo-1,2-dihydroisoquinolin-3-yl)propyl)piperazin-1-yl)nicotinonitrile] | < 50
29 | Cc1cc(F)cc2c(=O)[nH]c(CCC(=O)N3CC=C(c4cccc(F)c4)CC3)cc12 [Example 164, 7-fluoro-3-(3-(4-(3-fluorophenyl)-3,6-dihydropyridin-1(2H)-yl)-3-oxopropyl)-5-methylisoquinolin-1(2H)-one] | < 50
30 | Cc1ccc(F)c2c(=O)[nH]c(CCCN3CCN(c4ccc(Cl)cc4)CC3)cc12 [Example 33, 3-(3-(4-(4-chlorophenyl)piperazin-1-yl)propyl)-8-fluoro-5-methylisoquinolin-1(2H)-one] | < 50
31 | O=C(CCc1cc2cccc(F)c2c(=O)[nH]1)N1CCN(c2ccccc2F)CC1 [Example 75, 8-fluoro-3-(3-(4-(2-fluorophenyl)piperazin-1-yl)-3-oxopropyl)isoquinolin-1(2H)-one] | < 50
32 | Cc1ccc(F)c2c(=O)[nH]c(CCCN3C4CCC3CN(c3ccc(F)cc3)C4)cc12 [Example 198, 8-fluoro-3-(3-(3-(4-fluorophenyl)-3,8-diazabicyclo[3.2.1]octan-8-yl)propyl)-5-methylisoquinolin-1(2H)-one] | < 50
33 | N#Cc1ccc(N2CCN(CCCc3cc4ncccc4c(=O)[nH]3)CC2)cn1 [Example 226, 5-(4-(3-(5-oxo-5,6-dihydro-1,6-naphthyridin-7-yl)propyl)piperazin-1-yl)picolinonitrile] | < 50
34 | O=c1[nH]c(CCCN2CC=C(c3ccncc3)CC2)cc2ncccc12 [Example 240, 7-(3-(3,6-dihydro-[4,4′-bipyridine]-1(2H)-yl)propyl)-1,6-naphthyridin-5(6H)-one] | < 50
35 | Cc1ccc(F)c2c(=O)[nH]c(CCC(=O)N3C4CCC3CC(O)C4)cc12 (stereo not shown) [Example 269, 8-fluoro-3-(3-(3-hydroxy-8-azabicyclo[3.2.1]octan-8-yl)-3-oxopropyl)-5-methylisoquinolin-1(2H)-one] | < 50

Same assay, conditions: PARP-1 enzyme activity

Row | SMILES | IC50 [nM]
36 | Cc1cc(F)cc2c(=O)[nH]c(CCCN3CC=C(c4ccc(C#N)cc4)CC3)cc12 [Example 58, 4-(1-(3-(7-fluoro-5-methyl-1-oxo-1,2-dihydroisoquinolin-3-yl)propyl)-1,2,3,6-tetrahydropyridin-4-yl)benzonitrile] | 1.76
37 | Cc1cc(F)cc2c(=O)[nH]c(CCC(=O)N3CCN(c4ccc(C#N)cn4)CC3)cc12 [Example 152, 6-(4-(3-(7-fluoro-5-methyl-1-oxo-1,2-dihydroisoquinolin-3-yl)propanoyl)piperazin-1-yl)nicotinonitrile] | 0.85
